PMC8433052 (iScience, 2021)
Where two headings read alike, the source gives them in different places.

What was measured:
[1] = biological target: Recombinant ZIKV NS5 protein (ZIKV RdRp) (Zika virus, UniProt A0A024B7W1); test: Primer extension polymerase activity assay; format: biochemical; details: RNA P/T, then ATP, GTP, CTP, UTP 100 μM each, 30°C 2 h; 3′-dATP 100 μM, HMTU-TP 0.025-1.6 mM
Procedure: To generate RNA primer-template complexes (RNA P/T), 0.5 μM fluorescently labeled RNA primer and 2 μM unlabeled RNA template were mixed in 50 mM NaCl, incubated at 95°C for 10 min, and then slowly cooled down to room temperature. The annealed RNA P/T was stored at -30°C before use in the primer extension assay.
The primer extension assay was performed according to a previous report ([Lu et al., 2017]). For analysis of the competitive inhibition ability of HMTU-TP, 200 nM of recombinant ZIKV NS5 (Sino Biological) and 50 nM RNA P/T were incubated 30°C for 15 min in reaction buffer [10 mM Tris-HCl (pH 7.5), 10 mM DTT, 5 mM MgCl2, 5% glycerol, 0.05% Triton-X 100, and 0.02 U/μL RNasein (Promega)], and then ATP analogs [500 μM ATP (Thermo Fischer Scientific), 100 μM 3’-dATP (TriLink), or serially diluted HMTU-TP (0.025, 0.1, 0.4 or 1.6 mM)] were added and incubated at 30°C for 10 min. Primer extension reactions were initiated by the addition of ATP, GTP, CTP and UTP (100 μM each). The reactions were performed 30°C for 2 h and stopped by the addition of quenching buffer (7M Urea, 1X TBE buffer, and 50 mM EDTA). The quenched samples were denatured at 95°C for 5 min, and the primer extension products were separated on a 15% denaturing polyacrylamide gel (Invitrogen). […] The band intensities were analyzed by ImageQuant TL version 8.2.0 (Cytiva).

DENV4 = test: CPE-based antiviral assay (resazurin), DENV4 in BHK-21; format: cell-based, Dengue virus 4; details: Dengue virus, DENV4, BHK-21, 120 h, read-out: EC50 against DENV4
ZIKV = test: CPE-based antiviral assay (MTT), ZIKV in BHK-21; format: cell-based; details: Zika virus, BHK-21, 72 h, read-out: EC50 against ZIKV
YFV = test: microbe, parasite or virus in culture; format: cell-based; details: Yellow fever virus, BHK-21, 72 h, read-out: EC50 against YFV
DENV1 = test: CPE-based antiviral assay (resazurin), DENV1 in BHK-21; format: cell-based, Dengue virus 1; details: Dengue virus, DENV1, BHK-21, 120 h, read-out: EC50 against DENV1
DENV2 [2] = test: CPE-based antiviral assay (resazurin), DENV2 in BHK-21; format: cell-based, Dengue virus 2; details: Dengue virus, DENV2, BHK-21, 96 h, read-out: EC50 against DENV2
JEV = test: CPE-based antiviral assay (MTT), JEV in BHK-21; format: cell-based; details: Japanese encephalitis virus, BHK-21, 72 h, read-out: EC50 against JEV
WNV = test: CPE-based antiviral assay (MTT), WNV in BHK-21; format: cell-based; details: West Nile virus, BHK-21, 72 h, read-out: EC50 against WNV
DENV3 = test: CPE-based antiviral assay (resazurin), DENV3 in BHK-21; format: cell-based, Dengue virus 3; details: Dengue virus, DENV3, BHK-21, 120 h, read-out: EC50 against DENV3
MRC5 cells = test: Cytotoxicity against MRC5 cells; format: cell-based, Human; details: for CC50: rescreening (Table 3), read-out: CC50
Procedure: (§1) The MTT (3-[4,5-dimethyl-2-thiazolyl]-2,5-diphenyl-2H-tetrazolium bromide) and resazurin reduction assays were carried out as previously described ([Nobori et al., 2018]; [Sanaki et al., 2019]). These were performed to calculate cell viability following viral induced CPE or cytotoxicity. Assay conditions for flaviviruses are as described in Table 2.

[3] = Cytotoxicity against MRC5 cells; format: cell-based, Human; details: human
Procedure: as §1

HCoV-229E = test: Resazurin reduction assay, HCoV-229E-infected MRC5 cells
DENV2 [4] = test: MTT assay, DENV2-infected BHK-21 cells; format: cell-based, Dengue virus 2; details: Dengue virus
SARS-CoV-2 = test: qRT-PCR analysis of SARS-CoV-2 in Caco-2 cells (rescreening, supernatant viral RNA); format: cell-based; details: qRT-PCR analysis using Caco-2 cells, MOI 0.1, 48 h
HCoV-OC43 = test: Resazurin reduction assay, HCoV-OC43-infected MRC5 cells
BHK-21 cells = test: Cytotoxicity assay in BHK-21 cells; format: cell-based, Hamster; details: concentrations up to 20 μM
[5] = Cytotoxicity assay in BHK-21 cells; format: cell-based, Hamster; details: hamster
dogs = tested on: dogs; parameters: method as in Lim et al., 2015; Yin et al., 2009; details: dosed orally, preclinical, ref Lim et al., 2015, Yin et al., 2009; cited from earlier work
rats = tested on: rats; parameters: method as in Lim et al., 2015; Yin et al., 2009; details: dosed orally, preclinical, ref Lim et al., 2015, Yin et al., 2009; cited from earlier work
[6] = rescreening (Table 3), read-out: CC50
[7] = Human coronavirus 229E, MRC5, read-out: HCoV-229E EC50
[8] = MRC5 cells, resazurin reduction assay
[9] = Severe acute respiratory syndrome coronavirus 2
[10] = Betacoronavirus 1, OC43, MRC5, read-out: HCoV-OC43 EC50
[11] = read-out: HCoV-229E EC50, MRC5 cells, resazurin reduction assay, rescreening of nine tubercidin derivatives
[12] = read-out: HCoV-OC43 EC50, MRC5 cells, resazurin reduction assay, rescreening of nine tubercidin derivatives

Sequence of Recombinant ZIKV NS5 protein (ZIKV RdRp) (A0A024B7W1 2521-3423): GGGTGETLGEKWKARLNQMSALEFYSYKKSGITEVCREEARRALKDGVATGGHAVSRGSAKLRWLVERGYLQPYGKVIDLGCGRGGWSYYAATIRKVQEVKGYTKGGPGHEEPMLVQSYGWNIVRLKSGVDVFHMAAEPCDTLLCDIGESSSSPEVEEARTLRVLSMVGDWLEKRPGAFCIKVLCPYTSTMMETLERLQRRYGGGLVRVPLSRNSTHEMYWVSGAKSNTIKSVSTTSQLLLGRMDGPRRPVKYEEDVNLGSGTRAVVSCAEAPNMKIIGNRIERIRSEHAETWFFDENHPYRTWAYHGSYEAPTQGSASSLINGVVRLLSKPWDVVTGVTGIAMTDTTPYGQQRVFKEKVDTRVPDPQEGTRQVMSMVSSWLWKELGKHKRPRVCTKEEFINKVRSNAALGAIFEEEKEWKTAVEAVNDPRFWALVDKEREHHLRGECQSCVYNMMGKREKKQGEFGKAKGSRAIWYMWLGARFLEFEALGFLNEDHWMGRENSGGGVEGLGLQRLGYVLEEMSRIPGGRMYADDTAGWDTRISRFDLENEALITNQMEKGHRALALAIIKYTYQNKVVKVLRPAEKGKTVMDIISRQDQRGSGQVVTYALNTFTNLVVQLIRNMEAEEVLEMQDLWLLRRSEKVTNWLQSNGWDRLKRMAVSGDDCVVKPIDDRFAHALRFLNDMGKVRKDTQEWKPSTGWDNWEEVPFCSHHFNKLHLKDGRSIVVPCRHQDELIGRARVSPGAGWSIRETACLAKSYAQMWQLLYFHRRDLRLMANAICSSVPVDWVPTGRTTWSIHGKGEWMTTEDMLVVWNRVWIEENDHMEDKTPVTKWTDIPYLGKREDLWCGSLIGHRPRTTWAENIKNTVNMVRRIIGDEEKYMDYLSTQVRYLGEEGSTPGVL

**Q.** Which “effect on RNA extension by ZIKV RdRp” value [1] does the source give for Nc1ncnc2c1ncn2[C@@H]1O[C@H](COP(=O)(O)OP(=O)(O)OP(=O)(O)O)C[C@H]1O [3′-dATP, 3'-Deoxyadenosine-5'-Triphosphate, reference compound] here?
**A.** The value was “prevented RNA extension”.

**Q.** Which results are given for NC(=O)c1nc(F)c[nH]c1=O [Favipiravir]?
**A.** EC50 (DENV4): 5.2 µM; EC50 (ZIKV): 40 µM; EC50 (YFV): 57 µM; EC50 (DENV1): 17 µM; EC50 (DENV2 [2]): 4.4 µM; EC50 (JEV): 80 µM; EC50 (WNV): > 100 µM; EC50 (DENV3): 13 µM

**Q.** Which “effect on RNA extension by ZIKV RdRp” value [1] does the source give for Nc1ncnc2c1c(CO)cn2C1OC(COP(=O)(O)OP(=O)(O)OP(=O)(O)O)C(O)C1O (centres unmarked) [HMTU-TP, HMTU 5′-triphosphate] here?
**A.** The value was “incorporated into RNA template, resulting in chain termination”.

**Q.** Which “cytotoxicity (in words)” value (MRC5 cells) does the source give for Nc1ncnc2c1c(/C=N\O)cn2[C@@H]1O[C@H](CO)[C@@H](O)[C@H]1O [HUP1069, 5-formyltuberucidin oxime] here?
**A.** The value was “high cytotoxicity”.

**Q.** And the CC50 [3, 6]?
**A.** The CC50 was 0.74 µM.

**Q.** What about the EC50 (HCoV-229E; [7]) of the same compound?
**A.** The EC50 was < 0.078 µM.

**Q.** And the “anti-HCoV-229E activity (in words)” value (HCoV-229E; [8])?
**A.** Its value is “strong antiviral activities”.

**Q.** What about the EC50 (DENV2 [4]) of the same compound?
**A.** Its EC50 is < 0.125 µM.

**Q.** What about the EC90 (SARS-CoV-2; [9]) of the same compound?
**A.** Its EC90 is 0.2 µM.

**Q.** And the EC50 (HCoV-OC43; [10])?
**A.** Its EC50 is 0.055 µM.

**Q.** What about the “anti-HCoV-OC43 activity (in words)” value (HCoV-OC43; [8]) of the same compound?
**A.** The value was “strong antiviral activities”.

**Q.** What about the “cytotoxicity (in words)” value (BHK-21 cells) of the same compound?
**A.** The value was “high cytotoxicity”.

**Q.** And the CC50 [5]?
**A.** The CC50 was 0.18 µM.

**Q.** For Nc1c2ccn([C@@H]3O[C@H](CO)[C@@H](O)[C@H]3O)c2nc[n+]1[O-] [HUP1077, 3-tubercidin N-oxide], which CC50 [3, 6] is on record?
**A.** The CC50 was 24 µM.

**Q.** What about the EC50 (HCoV-229E; [7]) of the same compound?
**A.** Its EC50 is 4 µM.

**Q.** And the “anti-HCoV-229E activity (in words)” value (HCoV-229E; [8])?
**A.** The value was “strong antiviral activities”.

**Q.** What about the EC50 (DENV2 [4]) of the same compound?
**A.** Its EC50 is 0.95 µM.

**Q.** What about the EC90 (SARS-CoV-2; [9]) of the same compound?
**A.** The EC90 was 3.5 µM.

**Q.** And the EC50 (HCoV-OC43; [10])?
**A.** The EC50 was 4.3 µM.

**Q.** What about the “anti-HCoV-OC43 activity (in words)” value (HCoV-OC43; [8]) of the same compound?
**A.** The value was “strong antiviral activities”.

**Q.** What about the “cytotoxicity (in words)” value (BHK-21 cells) of the same compound?
**A.** Its value is “did not exhibit cytotoxicity”.

**Q.** What about the CC50 [5] of the same compound?
**A.** The CC50 was > 20 µM.

**Q.** Which CC50 (MRC5 cells) does the source give for Nc1ncnc2c1c([N+](=O)[O-])cn2[C@@H]1O[C@H](CO)[C@@H](O)[C@H]1O [HUP1078] here?
**A.** Its CC50 is 0.33 µM.

**Q.** What about the EC50 (HCoV-229E; [11]) of the same compound?
**A.** Its EC50 is 2 µM.

**Q.** What about the EC90 (SARS-CoV-2) of the same compound?
**A.** The EC90 was 0.1 µM.

**Q.** What about the EC50 (HCoV-OC43; [12]) of the same compound?
**A.** The EC50 was > 10 µM.

**Q.** For N#Cc1cn([C@@H]2O[C@H](CO)[C@@H](O)[C@H]2O)c2ncnc(N)c12 [HUP1109], which CC50 (MRC5 cells) is on record?
**A.** The CC50 was 0.59 µM.

**Q.** What about the EC50 (HCoV-229E; [11]) of the same compound?
**A.** Its EC50 is 2.3 µM.

**Q.** And the EC90 (SARS-CoV-2)?
**A.** The EC90 was 0.2 µM.

**Q.** What about the EC50 (HCoV-OC43; [12]) of the same compound?
**A.** Its EC50 is > 10 µM.

**Q.** Which results are given for Nc1ncnc2c1ccn2[C@@H]1O[C@H](CO)[C@@H](O)[C@H]1O [HUP1136, tubercidin]?
**A.** cytotoxicity (in words) (MRC5 cells): high cytotoxicity; CC50 [3, 6]: 0.66 µM; EC50 (HCoV-229E; [7]): < 0.078 µM; anti-HCoV-229E activity (in words) (HCoV-229E; [8]): strong antiviral activities; EC50 (DENV2 [4]): < 0.125 µM; EC90 (SARS-CoV-2; [9]): 0.087 µM; EC50 (HCoV-OC43; [10]): 0.11 µM; anti-HCoV-OC43 activity (in words) (HCoV-OC43; [8]): strong antiviral activities; cytotoxicity (in words) (BHK-21 cells): high cytotoxicity; CC50 [5]: 0.34 µM

**Q.** Which results are given for C#C[C@@]1(O)[C@H](O)[C@@H](CO)O[C@H]1n1ccc2c(N)ncnc21 [NITD-008, 2′-C-ethynyltubercidin]?
**A.** toxicity (dogs): significant toxicity; toxicity (rats): significant toxicity

**Q.** Which CC50 ([3]; mean from three independent experiments (Table 4), read-out: CC50 MRC5, mean) does the source give for CCC(CC)COC(=O)[C@H](C)N[P@](=O)(OC[C@H]1O[C@@](C#N)(c2ccc3c(N)ncnn23)[C@H](O)[C@@H]1O)Oc1ccccc1 [Remdesivir, reference compound] here?
**A.** The CC50 was > 50 µM.

**Q.** And the EC50 (HCoV-229E; Human coronavirus 229E, MRC5, read-out: HCoV-229E EC50, mean)?
**A.** The EC50 was 0.071 µM.

**Q.** And the EC50 (HCoV-OC43; Betacoronavirus 1, OC43, MRC5, read-out: HCoV-OC43 EC50, mean)?
**A.** Its EC50 is 0.229 µM.

**Q.** With NC(=O)c1ncn([C@@H]2O[C@H](CO)[C@@H](O)[C@H]2O)n1 [Ribavirin] as the compound, how does the EC50 (DENV4) read?
**A.** Its EC50 is 86 µM.

**Q.** What about the EC50 (DENV2 [4]) of the same compound?
**A.** Its EC50 is 28 µM.

**Q.** What about the EC50 (ZIKV) of the same compound?
**A.** Its EC50 is 31 µM.

**Q.** What about the EC50 (YFV) of the same compound?
**A.** The EC50 was 34 µM.

**Q.** What about the EC50 (DENV1) of the same compound?
**A.** Its EC50 is 62 µM.

**Q.** And the EC50 (DENV2 [2])?
**A.** The EC50 was 19 µM.

**Q.** What about the EC50 (JEV) of the same compound?
**A.** The EC50 was 33 µM.

**Q.** What about the CC50 [5] of the same compound?
**A.** Its CC50 is > 400 µM.

**Q.** And the EC50 (WNV)?
**A.** The EC50 was 52 µM.

**Q.** And the EC50 (DENV3)?
**A.** Its EC50 is 54 µM.
